From ChEMBL document CHEMBL1149623, “Identification of antibacterial and antiviral activities of novel fused 1,2,4-triazine esters” (2007)

What was measured:
[1] = system: HEK293; test: Cytotoxicity against human HEK293 cells at 10 ug/mL after 72 hrs by MTT assay; assay type: functional
[2] = system: HEK293; test: Cytotoxicity against human HEK293 cells at 25 ug/mL after 72 hrs by MTT assay; assay type: functional
[3] = Cytotoxicity against monkey GMK cells at 200 ug/mL after 96 hrs by MTT assay; assay type: functional, Chlorocebus aethiops
[4] = Cytotoxicity against monkey GMK cells at 2.5 ug/mL after 96 hrs by MTT assay; assay type: functional, Chlorocebus aethiops
[5] = Cytotoxicity against monkey GMK cells at 25 ug/mL after 96 hrs by MTT assay; assay type: functional, Chlorocebus aethiops
[6] = system: HEK293; test: Cytotoxicity against human HEK293 cells at 10 ug/mL after 120 hrs by MTT assay; assay type: functional
[7] = system: HEK293; test: Cytotoxicity against human HEK293 cells at 5 ug/mL after 48 hrs by MTT assay; assay type: functional
[8] = Cytotoxicity against monkey GMK cells at 50 ug/mL after 120 hrs by MTT assay; assay type: functional, Chlorocebus aethiops
[9] = Cytotoxicity against monkey GMK cells at 200 ug/mL after 120 hrs by MTT assay; assay type: functional, Chlorocebus aethiops
[10] = system: HEK293; test: Cytotoxicity against human HEK293 cells at 200 ug/mL after 120 hrs by MTT assay; assay type: functional
[11] = system: HEK293; test: Cytotoxicity against human HEK293 cells at 2.5 ug/mL after 120 hrs by MTT assay; assay type: functional
[12] = Cytotoxicity against monkey GMK cells at 2.5 ug/mL after 24 hrs by MTT assay; assay type: functional, Chlorocebus aethiops
[13] = Cytotoxicity against monkey GMK cells at 2.5 ug/mL after 120 hrs by MTT assay; assay type: functional, Chlorocebus aethiops
[14] = Cytotoxicity against monkey GMK cells at 25 ug/mL after 72 hrs by MTT assay; assay type: functional, Chlorocebus aethiops
[15] = Cytotoxicity against monkey GMK cells at 100 ug/mL after 120 hrs by MTT assay; assay type: functional, Chlorocebus aethiops
[16] = system: HEK293; test: Cytotoxicity against human HEK293 cells at 100 ug/mL after 48 hrs by MTT assay; assay type: functional
[17] = system: HEK293; test: Cytotoxicity against human HEK293 cells at 200 ug/mL after 24 hrs by MTT assay; assay type: functional
[18] = Cytotoxicity against monkey GMK cells at 50 ug/mL after 96 hrs by MTT assay; assay type: functional, Chlorocebus aethiops
[19] = system: Human adenovirus 5; test: Antiviral activity against Human adenovirus 5 in HEK293 cells assessed as virus titre at 100 ug/mL after 1 hr; assay type: functional
[20] = system: HEK293; test: Cytotoxicity against human HEK293 cells at 200 ug/mL after 96 hrs by MTT assay; assay type: functional
[21] = system: HEK293; test: Cytotoxicity against human HEK293 cells at 10 ug/mL after 96 hrs by MTT assay; assay type: functional
[22] = Cytotoxicity against monkey GMK cells at 200 ug/mL after 48 hrs by MTT assay; assay type: functional, Chlorocebus aethiops
[23] = Cytotoxicity against monkey GMK cells at 2.5 ug/mL after 48 hrs by MTT assay; assay type: functional, Chlorocebus aethiops
[24] = system: HEK293; test: Cytotoxicity against human HEK293 cells at 25 ug/mL after 48 hrs by MTT assay; assay type: functional
[25] = system: HEK293; test: Cytotoxicity against human HEK293 cells at 10 ug/mL after 24 hrs by MTT assay; assay type: functional
[26] = Cytotoxicity against monkey GMK cells at 50 ug/mL after 48 hrs by MTT assay; assay type: functional, Chlorocebus aethiops
[27] = system: Echovirus E9; test: Antiviral activity against Human echovirus 9 in GMK cells assessed as virus titre at 200 ug/mL after 1 hr; assay type: functional
[28] = system: HEK293; test: Cytotoxicity against human HEK293 cells at 10 ug/mL after 48 hrs by MTT assay; assay type: functional
[29] = Cytotoxicity against monkey GMK cells at 50 ug/mL after 72 hrs by MTT assay; assay type: functional, Chlorocebus aethiops
[30] = Cytotoxicity against monkey GMK cells at 100 ug/mL after 24 hrs by MTT assay; assay type: functional, Chlorocebus aethiops
[31] = system: HEK293; test: Cytotoxicity against human HEK293 cells at 5 ug/mL after 96 hrs by MTT assay; assay type: functional
[32] = Cytotoxicity against monkey GMK cells at 5 ug/mL after 48 hrs by MTT assay; assay type: functional, Chlorocebus aethiops
[33] = system: HEK293; test: Cytotoxicity against human HEK293 cells at 50 ug/mL after 48 hrs by MTT assay; assay type: functional
[34] = system: HEK293; test: Cytotoxicity against human HEK293 cells at 2.5 ug/mL after 48 hrs by MTT assay; assay type: functional
[35] = Cytotoxicity against monkey GMK cells at 25 ug/mL after 24 hrs by MTT assay; assay type: functional, Chlorocebus aethiops
[36] = Cytotoxicity against monkey GMK cells at 5 ug/mL after 24 hrs by MTT assay; assay type: functional, Chlorocebus aethiops
[37] = system: HEK293; test: Cytotoxicity against human HEK293 cells at 5 ug/mL after 120 hrs by MTT assay; assay type: functional
[38] = system: HEK293; test: Cytotoxicity against human HEK293 cells at 50 ug/mL after 96 hrs by MTT assay; assay type: functional
[39] = system: HEK293; test: Cytotoxicity against human HEK293 cells at 5 ug/mL after 24 hrs by MTT assay; assay type: functional
[40] = Cytotoxicity against monkey GMK cells at 10 ug/mL after 120 hrs by MTT assay; assay type: functional, Chlorocebus aethiops
[41] = Cytotoxicity against monkey GMK cells at 25 ug/mL after 120 hrs by MTT assay; assay type: functional, Chlorocebus aethiops
[42] = system: HEK293; test: Cytotoxicity against human HEK293 cells at 200 ug/mL after 72 hrs by MTT assay; assay type: functional
[43] = system: HEK293; test: Cytotoxicity against human HEK293 cells at 2.5 ug/mL after 24 hrs by MTT assay; assay type: functional
[44] = Cytotoxicity against monkey GMK cells at 5 ug/mL after 120 hrs by MTT assay; assay type: functional, Chlorocebus aethiops
[45] = system: HEK293; test: Cytotoxicity against human HEK293 cells at 2.5 ug/mL after 96 hrs by MTT assay; assay type: functional
[46] = Cytotoxicity against monkey GMK cells at 100 ug/mL after 72 hrs by MTT assay; assay type: functional, Chlorocebus aethiops
[47] = Cytotoxicity against monkey GMK cells at 10 ug/mL after 48 hrs by MTT assay; assay type: functional, Chlorocebus aethiops
[48] = system: HEK293; test: Cytotoxicity against human HEK293 cells at 25 ug/mL after 24 hrs by MTT assay; assay type: functional
[49] = system: HEK293; test: Cytotoxicity against human HEK293 cells at 2.5 ug/mL after 72 hrs by MTT assay; assay type: functional
[50] = system: HEK293; test: Cytotoxicity against human HEK293 cells at 25 ug/mL after 96 hrs by MTT assay; assay type: functional
[51] = Cytotoxicity against monkey GMK cells at 25 ug/mL after 48 hrs by MTT assay; assay type: functional, Chlorocebus aethiops
[52] = system: HEK293; test: Cytotoxicity against human HEK293 cells at 200 ug/mL after 48 hrs by MTT assay; assay type: functional
[53] = system: Echovirus E9; test: Antiviral activity against Human echovirus 9 in GMK cells assessed as virus titre at 100 ug/mL after 1 hr; assay type: functional
[54] = Cytotoxicity against monkey GMK cells at 10 ug/mL after 72 hrs by MTT assay; assay type: functional, Chlorocebus aethiops
[55] = system: HEK293; test: Cytotoxicity against human HEK293 cells at 50 ug/mL after 72 hrs by MTT assay; assay type: functional
[56] = system: Human adenovirus 5; test: Antiviral activity against Human adenovirus 5 in HEK293 cells assessed as virus titre at 50 ug/mL after 1 hr; assay type: functional
[57] = Cytotoxicity against monkey GMK cells at 10 ug/mL after 96 hrs by MTT assay; assay type: functional, Chlorocebus aethiops

COC(=O)CC1NN=C2N(CCN2c2cccc(Cl)c2)C1=O (configuration not stated)
Activity [1]: 100% | Activity [2]: 98% | Activity [3]: 0% | Activity [4]: 100% | Activity [5]: 95% | Activity [6]: 100% | Activity [7]: 100% | Activity [8]: 90% | Activity [9]: 0% | Activity [10]: 30% | Activity [11]: 100% | Activity [12]: 100% | Activity [13]: 100% | Activity [14]: 95% | Activity [15]: 0% | Activity [16]: 50% | Activity [17]: 98% | Activity [18]: 90% | TCID50 [19]: 3.5 mL⁻¹ | Activity [20]: 35% | Activity [21]: 100% | Activity [22]: 10% | Activity [23]: 100% | Activity [24]: 100% | Activity [25]: 100% | Activity [26]: 95% | TCID50 [27]: 3.33 mL⁻¹ | Activity [28]: 100% | Activity [29]: 95% | Activity [30]: 80% | Activity [31]: 100% | Activity [32]: 100% | Activity [33]: 95% | Activity [34]: 100% | Activity [35]: 100% | Activity [36]: 100% | Activity [37]: 100% | Activity [38]: 90% | Activity [39]: 100% | Activity [40]: 100% | Activity [41]: 95% | Activity [42]: 35% | Activity [43]: 100% | Activity [44]: 100% | Activity [45]: 100% | Activity [46]: 20% | Activity [47]: 100% | Activity [48]: 100% | Activity [49]: 100% | Activity [50]: 95% | Activity [51]: 100% | Activity [52]: 40% | TCID50 [53]: 3 mL⁻¹ | Activity [54]: 100% | Activity [55]: 95% | TCID50 [56]: 3.5 mL⁻¹ | Activity [57]: 100%
